In US20130084257A1, “TRANSDERMAL ABSORPTION PROMOTER, AND EXTERNAL SKIN FORMULATION THEREOF” (TAKASAGO INTERNATIONAL CORPORATION, priority 2010, published 2013):
Read-outs that look alike come from different tables or passages of the source.

Columns and labels:
[1] = hairless, mouse, 2 mass %, pH 7.4
Method: (§1) A skin specimen extirpated from a hairless mouse was placed in a vertical diffusion cell, with the dermal horny layer side being in the donor side and the dermal basement membrane side being in the receiver side. 16 mL of a phosphate-buffered physiological saline solution (PBS solution) (pH 7.4) was added to the receiver side. The cell was heated in a water bath at 37° C. 30 minutes after starting heating, 1.0 g of a hydrogel, having been heated to 37° C., was applied to the donor side using a needleless syringe. The receiver solution was collected in 1 mL portions at specific time intervals. To the receiver side, the PBS solution was added in 1 mL portions to make up for the collected portions.
(§2) The receiver solution thus collected was subjected to high performance liquid chromatography (HPLC) and the amount of permeated paroxetine was calculated.

[2] = Skin permeability test: effect of promoting transdermal absorption of antipyrine (vertical diffusion cell); settings: hydrogel with 2 mass % antipyrine and 2 mass % test sample; hairless mouse skin; receiver PBS pH 7.4; 37° C.; n = 5
Method: as §1, §2

[3] = Skin permeability test: effect of promoting transdermal absorption of paroxetine (vertical diffusion cell); type: in vitro ADME; settings: hydrogel with 1 mass % paroxetine and 2 mass % test sample; hairless mouse skin; receiver PBS pH 7.4; 37° C.; n = 5
From the text: As a control, purified water was used as a substitute for the test samples.
Device: Elite LaChrom System (manufactured by Hitachi Ltd.)
Column: YMS-Pack ODS-A 4.6 mm×150 mm (manufactured by YMC Co., Ltd.)
Eluent: phosphate buffer (pH 3.5)/acetonitrile=35/65 (V/V)
Measurement wavelength: 235 nm

| Compound | Flux of antipyrine (transdermal absorption amount per unit time and unit area) [1] [μg/cm^2/h] | Lagtime of antipyrine (transdermal absorption speed) [1] [h] | Flux of antipyrine (transdermal absorption amount per unit time and unit area) [2] [μg/cm^2/h] | Lagtime of antipyrine (transdermal absorption speed) [2] [h] | Flux of paroxetine (transdermal absorption amount per unit time and unit area) [3] [μg/cm^2/h] | Lagtime of paroxetine (transdermal absorption speed) [3] [h] |
| --- | --- | --- | --- | --- | --- | --- |
| CC1CCC(C(C)C)C(OCC(C)(O)CO)C1 (centres unmarked) [CA1, 2-methyl-3-(menthoxy)propane-1,2-diol] | 150.71 ± 5.46 | 3.20 ± 0.24 | – | – | – | – |
| CC1CCC(C(C)C)C(OCCO)C1 (centres unmarked) [CA5, 2-(menthoxy)ethanol] | 224.59 ± 19.56 | 1.36 ± 0.28 | – | – | – | – |
| CC1CCC(C(C)C)C(O)C1 (centres unmarked) [Sample 1-Menthol, 1-menthol] | – | – | 300.52 ± 34.42 | 0.53 ± 0.02 | 185 ± 31.1 | 3.84 ± 1.60 |
